The values below come from patent US4263326A, “Antimicrobial compositions containing an octylphenone” (The Lion Dentrifice Co. Ltd., priority 1978, dated 1981).

Read-outs that look alike come from different tables or passages of the source.

A short description of data set [1]: Irritancy / physiological activity.
Data set [2] has as its system Bacillus subtilis. The experiment in a line: Growth prevention of Bacillus subtilis in tripticase soy broth culture media at 37° C. The class given is cell-based. Here is the method: For comparative purpose, three more culture media were prepared without addition of an antimicrobial agnet or with addition of 2% by weight of ethyl alcohol or 0.2% by weight of sorbic acid instead of the phenone compound and Bacillus subtilis was cultured therein similarly.

Data set [3] can be described thus: Oral LD50 in rats. As to conditions: rat, in vivo, po. The data set is classed as in vivo.
Data set [4] concerns rats. The experiment in a line: Oral LD50 in rats. The class given is in vivo.
Data set [5] relates to Aspergillus niger. Also noted: key to the marks not given beside the values. As to conditions: 5%, 28° C. Here is the method:
(§1) The antifungal effect of the extract powder prepared in Example 2 was examined by adding it into potato-dextrose agar culture media in an amount of 0.2% by weight in which Aspergillus niger or Penicillium crysogenum were cultured at 28° C. For comparison, similar culture tests of the fungi were undertaken with the culture media in which no antimicrobial agent was added or 5% by weight of ethyl alcohol was added instead of the extract powder.
(§2) the results are summarized in Table 2 below, in which the marks "±" are for the cases where the growth of the molds was difficultly recognized, the marks "+" are for the cases where the growth of the molds could be recognized only of the hyphae though to a small extent, the mark "++" are for the cases where the growth could be recognized only of the hyphae to a considerable extent, and the marks "+++" and "++++" are for the cases where spores were formed.

Data set [6] has as its system Penicillium crysogenum. Conditions: 5%, 28° C. Here is the method: as §1, §2

Take `O=C(CCCCCCCCc1cc(O)ccc1O)c1c(O)cccc1O` [2',6'-dihydroxy-9-(2,5-dihydroxyphenyl)octylphenone]: the irritancy entry in data set [1] was “non-irritant”. Besides, in data set [1], the physiological activity result is “physiologically inactive”. The “duration of growth prevention” value in data set [2] (0.002% by weight, tripticase soy broth) was at least 7.5 h. The “effectiveness compared with sorbic acid” value in data set [2] (0.002% vs sorbic acid 0.2%) is on record as “more effective than sorbic acid”. In addition, in data set [2] (concentration one hundredth of that of sorbic acid), the “antimicrobial effect compared with sorbic acid” value is “as good as that of sorbic acid”. Besides, the LD50 was at least 2000 mg/kg in data set [3] and 2000 mg/kg in data set [4].
Turning to `CCO` [Ethyl alcohol], the growth of mold entry is listed as “++” in data set [5] (10 days), “++” in data set [5] (18 days), “±” in data set [6] (10 days) and “++” in data set [6] (18 days).
`C/C=C/C=C/C(=O)O` [Sorbic acid, reference compound]: the “duration of antimicrobial effect” value in data set [2] (0.2% by weight, tripticase soy broth) is reported as “about 4.5 hours”.

As a reminder, the LD50 is the dose at which mortality reaches 50%.
